Data: ChEMBL document CHEMBL1201862, “PubChem BioAssay data set” (2004)
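96-well plates; 48 h exposure; 5 concentrations. Endpoints by linear interpolation between flanking doses. Not reached: highest tested concentration assigned. The concentration for 50% growth inhibition is given as GI50.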 Activity calls are given as the source filed them. Cut-off read from the data, not from the text of the source: active = GI50 up to about 1.1 µM and inactive = higher.

Columns and labels:
Assay in all cases: inhibition of tumour cell growth, NCI panel, 48 h
[1] = tested on: 786-0
[2] = tested on: A498
[3] = tested on: A549
[4] = tested on: ACHN
[5] = tested on: CAKI-1
[6] = tested on: CCRF-CEM
[7] = tested on: COLO 205
[8] = tested on: DLD-1
[9] = tested on: DMS-114
[10] = tested on: DMS-273
[11] = tested on: EKVX
[12] = tested on: HCC 2998
[13] = tested on: HCT-116
[14] = tested on: HCT-15
[15] = tested on: HOP-18
[16] = tested on: HOP-62
[17] = tested on: HOP-92
[18] = tested on: HT-29
[19] = tested on: IGROV-1
[20] = tested on: K562
[21] = tested on: KM-20L2
[22] = tested on: KM12
[23] = tested on: LOX IMVI
[24] = tested on: LXFL 529
[25] = tested on: M14
[26] = tested on: M19-MEL
[27] = tested on: MOLT-4
[28] = tested on: Malme-3M
[29] = tested on: NCI-H226
[30] = tested on: NCI-H23
[31] = tested on: NCI-H460
[32] = tested on: NCI-H522
[33] = tested on: OVCAR-3
[34] = tested on: OVCAR-4
[35] = tested on: OVCAR-5
[36] = tested on: OVCAR-8
[37] = tested on: RPMI-8226
[38] = tested on: RXF 393
[39] = tested on: RXF 631
[40] = tested on: SF-268
[41] = tested on: SF-539
[42] = tested on: SK-MEL-28
[43] = tested on: SK-MEL-2
[44] = tested on: SK-MEL-5
[45] = tested on: SK-OV-3
[46] = tested on: SN12C
[47] = tested on: SNB-19
[48] = tested on: SNB-75
[49] = tested on: SW-620
[50] = tested on: TK-10
[51] = tested on: U-251
[52] = tested on: UACC-257
[53] = tested on: UACC-62
[54] = tested on: UO-31
[55] = tested on: XF498

Measured: GI50

CC(=O)c1cccc(NC(=O)C(=O)C(C(=O)NN)c2ccccc2)c1 (stereo not given)
> 100 µM: [14]
inactive: [1] > 100 µM | [2] > 100 µM | [3] > 100 µM | [4] > 100 µM | [5] > 100 µM | [6] > 100 µM | [7] > 100 µM | [8] > 100 µM | [9] > 100 µM | [10] > 100 µM | [11] > 100 µM | [12] 51.6 µM | [13] > 100 µM | [15] 16.5 µM | [16] > 100 µM | [17] > 100 µM | [18] > 100 µM | [19] > 100 µM | [20] > 100 µM | [21] > 100 µM | [22] > 100 µM | [23] > 100 µM | [24] > 100 µM | [25] > 100 µM | [26] > 100 µM | [27] > 100 µM | [28] > 100 µM | [29] > 100 µM | [30] > 100 µM | [31] > 100 µM | [32] > 100 µM | [33] > 100 µM | [34] > 100 µM | [35] > 100 µM | [36] > 100 µM | [37] > 100 µM | [38] > 100 µM | [39] > 100 µM | [40] > 100 µM | [41] > 100 µM | [42] > 100 µM | [43] > 100 µM | [44] > 100 µM | [45] > 100 µM | [46] > 100 µM | [47] > 100 µM | [48] > 100 µM | [49] > 100 µM | [50] > 100 µM | [51] > 100 µM | [52] > 100 µM | [53] > 100 µM | [54] > 100 µM | [55] > 100 µM
